Experimental findings from patent US11590130B2, “Combinations of a tubulin polymerization inhibitor and a poly (ADP-ribose) polymerase (PARP) inhibitor for use in the treatment of cancer” (NOVIGA RESEARCH AB, priority 2018, dated 2023) are described below.

Data set [1] concerns patient-derived xenograft of ovarian cancer (Ov10584). As to the kind of experiment: Anti-tumor efficacy of NOV202 alone and in combination with olaparib in patient-derived xenograft of ovarian cancer (Example 1). It counts as in vivo. To be noted: for T/C (tumor/control) value: NMRI:nu/nu mice, Ov10584 s.c., once a day for 14 days (days 8-22), combination same dosage and schedule. From the text:
A Study of Anti-Tumor Efficacy of NOV202 Alone and in Combination with Olaparib in a Patient-Derived Xenograft of Ovarian Cancer (Ov10584)
NMRI:nu/nu female (Janvier) mice (8 weeks old) were used as follows: 4 animals in the vehicle group, 4 animals in NOV202 group, Olaparib group and in the combination group of NOV202 and olaparib, respectively. NOV202 was synthesized as described in WO 2012/127032. Olaparib was purchased from LC Laboratories. The patient-derived xenograft Ov10584 was used at passage number 7. All mice received tissue fragments of 2×2 mm subcutaneously at day 0, and tumors were allowed to reach palpable sizes of 118 mm^3 (mean) (the study day 8) prior to start the treatments. NOV202 group was administered PO at a dose 30 mg/kg and olaparib group was administered PO at a dose 100 mg/kg. The combination of NOV202 and olaparib group had the same dosage and schedule as in monotherapy. NOV202 was given in the morning (5 ml/kg) and olaparib in the afternoon (10 ml/kg). All three groups were administered 14 days once a day (days 8-22). The tumor volumes and body weights of animals were measured at regular intervals (day 7, 9, 13, 15, 19, 22, 27, all groups, and continued to measure the combination group day 29, 33, 36, 40, 43, 47, 50, 54, 57).

For data set [2], the system named is patient-derived xenograft Ov10584. As to the kind of experiment: Anti-tumor efficacy of NOV202 with olaparib vs. plinabulin with olaparib in patient-derived xenograft of ovarian cancer (Example 2). It counts as in vivo. To be noted: NMRI:nu/nu mice, Ov10584 s.c.; NOV202 30 mg/kg PO and olaparib 100 mg/kg PO once a day days 6-19; plinabulin 7.5 mg/kg i.p. days 1, 4, 8, 11, 15; combinations same dosage and schedule. The text has this: A Study of Anti-Tumor Efficacy of Combination of NOV202 with Olaparib Vs. Combination Plinabulin with Olaparib in a Patient-Derived Xenograft of Ovarian Cancer ([…])
NMRI:nu/nu female (Janvier) mice (8 weeks old) were used as follows: 4 animals in the vehicle group, 4 animals in NOV202 group, olaparib group, plinabulin group, in the combination group of NOV202 and Olaparib, and in the combination group of plinabulin and olaparib, respectively. NOV202 was synthesized as described in WO 2012/127032. Olaparib was purchased from LC Laboratories, and plinabulin was purchased from Sellechem. The patient-derived xenograft Ov10584 was used at passage number 4. All mice received tissue fragments of 2×2 mm subcutaneously into the left flank at day 0, and tumors were allowed to reach palpable sizes of 108 mm^3 (mean) (the study day 6) prior to start the treatments. NOV202 group was administered PO at a dose 30 mg/kg and olaparib group was administered PO at a dose 100 mg/kg, and plinabulin was administered i.p. at a dose 7.5 mg/kg. The combination of NOV202 and olaparib group had the same dosage and schedule as in monotherapy, NOV202 was given in the morning (5 ml/kg) and olaparib in the afternoon (10 ml/kg). The combination of plinabulin and olaparib group had also the same dosage and schedule as in monotherapy. NOV202 and olaparib was administered 14 days once a day (days 6-19), and plinabulin was administered days 1, 4, 8, 11, 15 once a day. The tumor volumes and body weights of animals were measured at regular intervals (day 6, 7, 9, 12, 14, 16, 19, 23, 26 and 29), all groups.
A general note: Xenograft models place foreign cells or tissue in a host animal.

Data set [3] has as its system human OC xenograft model. As to the kind of experiment: In vivo efficacy study in a human OC xenograft model. From the text:
Development of the tumour vasculature system is essential to tumour growth and metastatic spread of malignant cells. The rationale behind using vasculature targeting agents in anti-cancer therapy is that the cancer cells will be deprived of essential nutrients and oxygen supply for their growth and spread, thereby improving treatment outcome.

The test system of data set [4] is ovarian cancer (OC) cell line A2780. Kind of data set: Anti-proliferative activity in human cancer cell lines. To be noted: A2780 cells. It counts as cell-based. From the text:
(§1) Compounds of Formula I, including NOV202, exerts its action by inhibition of tubulin polymerization and thereby the assembly of microtubule structures, which cause a cell cycle arrest and cell death via apoptosis. […] The A2780/Adr multidrug resistant OC cell line overexpresses the P-glycoprotein efflux transporters which confer multidrug resistance.

Data set [5] has as its system A2780/Adr multidrug resistant OC cell line. Kind of data set: Activity in multidrug resistant OC cells. It counts as cell-based, human. To be noted: A2780/Adr overexpresses P-glycoprotein efflux transporters.
Text: as §1

[6] abbreviates: NOV202 30 mg/kg PO, olaparib 100 mg/kg PO.

As for `COc1ccc2[nH]cc(CCNc3nccc(Nc4cccc5c4ccn5C)n3)c2c1` [NOV202, N^2-[2-(5-methoxy-1H-indol-3-yl)ethyl]-N^4-(1-methyl-1H-indol-4-yl)pyrimidine-2,4-diamine], the “T/C (tumor/control) value” in data set [1] (setting [6]) was 37%; in data set [2], 32%. Further, the tolerability entry in data set [1] (daily treatment for 14 days, NOV202 30 mg/kg PO, olaparib 100 mg/kg PO) is recorded as “well tolerated”; in data set [3] (oral gavage over a period of 20 days), “well tolerated”. Moreover, in data set [1] (one day after treatment stop, 30 mg/kg NOV202 daily for 14 days, mice recovered soon), the body weight loss is listed as 6%. For the same compound, the “suppression of tumour growth” value in data set [3] (human OC xenograft, similar to paclitaxel in this model) is reported as “up to 80%”. Moreover, in data set [4], the anti-proliferative activity entry is recorded as “very potent”. The “effectiveness in multidrug resistant versus isogenic non-resistant OC cells” value in data set [5] is recorded as “as effective in multidrug resistant OC cells as in the isogenic (drug sensitive variant) non-resistant OC cells”.
With `O=C(c1cc(Cc2n[nH]c(=O)c3ccccc23)ccc1F)N1CCN(C(=O)C2CC2)CC1` [olaparib, 4-(3-{[4-(cyclopropylcarbonyl)piperazin-1-yl]carbonyl}-4-fluorobenzyl)phthalazin-1(2H)-one, reference compound], the “T/C (tumor/control) value” is 20% in data set [1] (setting [6]) and 45% in data set [2].
Turning to `CC(C)(C)c1[nH]cnc1/C=c1\[nH]c(=O)/c(=C/c2ccccc2)[nH]c1=O` [plinabulin, (3Z,6Z)-3-Benzylidene-6-{[5-(2-methyl-2-propanyl)-1H-imidazol-4-yl]methylene}-2,5-piperazinedione], in data set [2], the “T/C (tumor/control) value” was 58%.
